Experimental data from patent US20250228891A1, “COMBINATIONS CONTAINING OXYLANTHANUM CARBONATE FOR TREATING HYPERPHOSPHATEMIA” (UNICYCIVE THERAPEUTICS, INC., priority 2024, published 2025).

How the values were obtained:
[1] = Body weight and food intake in the OLC+Tenapanor Combo Study (Example 1); conditions: rat, in vivo
Experimental: FIG. 1. Represents the Study Design of the OLC+Tenapanor Combo Study described in Example 1. The study consisted of acclimatization, randomization, in vivo study period, and termination. Animals were acclimated from Day-7 to Day-4. On study Day-1, animals were randomized into eight groups: one vehicle; one tenapanor (0.15 mg/kg); three oxylanthanum carbonate (OLC) (0.75%, 1.5%, and 3%); and three combination treatment with OLC and tenapanor (OLC 0.75%, 1.5%, and 3%+tenapanor 0.15 mg/kg). On study Day 1, animals were switched to high phosphorus diets. Animals were euthanized on Day 11 two hours post last dose. Legend: 1 Body weight and food intake were measured daily from study Day-3 until termination. 2 During the in vivo study period (Days 1 to 11), vehicle and tenapanor were dosed orally twice/day whereas OLC was incorporated into the diets. 3 Urine samples were collected on Days 9, 10, and 11 for phosphate measurements and blood samples were collected for serum phosphate and sodium measurements on day 11 after the final urine sampling. Sixty-four male Sprague Dawley rats of 9 weeks old (11 weeks by the end of the study) were fed standard chow one week prior to study start. […] Body weight and food intake were measured daily from study Day-3 until termination. […] The mean body weight (FIG. 2A) and food intake (FIG. 2B) were measured from Day 1 to 11.

[2] = test system: Sprague Dawley rats; experiment: Urinary phosphate excretion in rats fed a high phosphorus diet (OLC+Tenapanor Combo Study, Example 1); type: in vivo, rat; conditions: Days 9 to 11
Experimental: FIG. 1. Represents the Study Design of the OLC+Tenapanor Combo Study described in Example 1. The study consisted of acclimatization, randomization, in vivo study period, and termination. Animals were acclimated from Day-7 to Day-4. On study Day-1, animals were randomized into eight groups: one vehicle; one tenapanor (0.15 mg/kg); three oxylanthanum carbonate (OLC) (0.75%, 1.5%, and 3%); and three combination treatment with OLC and tenapanor (OLC 0.75%, 1.5%, and 3%+tenapanor 0.15 mg/kg). On study Day 1, animals were switched to high phosphorus diets. Animals were euthanized on Day 11 two hours post last dose. Legend: 1 Body weight and food intake were measured daily from study Day-3 until termination. 2 During the in vivo study period (Days 1 to 11), vehicle and tenapanor were dosed orally twice/day whereas OLC was incorporated into the diets. 3 Urine samples were collected on Days 9, 10, and 11 for phosphate measurements and blood samples were collected for serum phosphate and sodium measurements on day 11 after the final urine sampling. Sixty-four male Sprague Dawley rats of 9 weeks old (11 weeks by the end of the study) were fed standard chow one week prior to study start. On study day-1, animals were randomized into 8 study groups (n=8): 1) vehicle, 2) tenapanor 0.15 mg/kg, 3) Vehicle+OLC 0.75%, 4) Vehicle+OLC 1.5%, 5) Vehicle+OLC 3%, 6) tenapanor 0.15 mg/kg+OLC 0.75%, 7) tenapanor 0.15 mg/kg+OLC 1.5%, and 8) tenapanor 0.15 mg/kg+OLC 3%. Vehicle and tenapanor were dosed PO twice/day whereas OLC was incorporated into the diets. On study Day 1, all animals were switched to high phosphorus diets consisting of chow spiked with 0.4% inorganic phosphorus [(1:1 sodium:potassium salt-wt./wt.), 1.1% total phosphorus content] for the rest of the study. Body weight and food intake were measured daily from study Day-3 until termination. 24-hour urine samples were collected using metabolic cages on day 9, 10, and 11 for urinary P measurements. Mean urinary phosphate excretion for each animal from Days 9 to 11 were averaged by treatment group. While we examined effects separately in each OLC dose group, our primary analyses compared pooled results in the three OLC dose groups combined. We compared pooled results using one-way ANOVA followed by Games-Howell test, and individual groups with vehicle using one-way ANOVA followed by Dunnett's multiple comparison test. A threshold of p<0.05 was used to determine significant differences between groups. Statistical Package for the Social Sciences (SPSS) was used for all statistical analyses. The Bliss model of independence was employed to determine if the combination of OLC and tenapanor was independent, synergistic, or antagonistic. (Zhao W, et al. J Biomol Screen June 2014; 19 (5): 817-821). The Bliss model compares the predicted combination response, calculated using the complete additivity of probability theory based on the observed effect of each individual agent administered alone, with the observed effect of combination treatment. The mean percentage reduction in urinary phosphate excretion relative to vehicle by treatment group was calculated by averaging urinary phosphate excretion for each animal from Days 9 to 11. Paired t-tests were conducted to assess the statistical significance between observed and predicted results. 2-tailed p-values<0.05 are considered to be statistically significant.

[3] = clinical trials; % of patients; cited from earlier work
[4] = Games-Howell post-hoc, OLC = average of 0.75%, 1.5%, 3% in chow, tenapanor 0.15 mg/kg/po/bid

CN1Cc2c(Cl)cc(Cl)cc2[C@H](c2cccc(S(=O)(=O)NCCOCCOCCNC(=O)NCCCCNC(=O)NCCOCCOCCNS(=O)(=O)c3cccc([C@@H]4CN(C)Cc5c(Cl)cc(Cl)cc54)c3)c2)C1.Cl.Cl [Tenapanor, 12,15-Dioxa-2,7,9-triazaheptadecanamide, 17-[[[3-[(4S)-6,8-dichloro-1,2,3,4-tetrahydro-2-methyl-4-isoquinolinyl]phenyl]sulphonyl]amino]-N-[2-[2-[2-[[[3-[(4S)-6,8-dichloro-1,2,3,4-tetrahydro-2-methyl-4-isoquinolinyl]phenyl]sulphonyl]amino]ethoxy]ethoxy]ethyl]-8-oxo-, hydrochloride (1:2)]
food intake compared with vehicle [1]: not significantly affected
mean urinary phosphate excretion lower compared to the vehicle group ([2]; tenapanor 0.15 mg/kg PO bid, OLC pooled across 0.75, 1.5 and 3% in chow, n=8 per treatment group): 8.5 mg/day
Mean Difference (A − B) in mean urinary phosphate excretion, Treatment Group (A) = Vehicle, (B) = labelled treatment [2, 4]: 8.510 mg/day
Mean Difference (A − B) in mean urinary phosphate excretion, Treatment Group (A) = labelled treatment, (B) = OLC [2, 4]: 3.583 mg/day
Mean Difference (A − B) in mean urinary phosphate excretion, Treatment Group (A) = labelled treatment, (B) = OLC + Tenapanor [2, 4]: 19.543 mg/day
Mean Difference (A − B) in mean urinary phosphate excretion, Treatment Group (A) = labelled treatment, (B) = Vehicle [2, 4]: -8.510 mg/day
diarrhea observed in patients taking tenapanor [3]: 53%
